“Also recorded” adds a separate entry of the source.

The record followed here is US12577238B2, “Compositions and methods for modulating inflammatory and degenerative disorder” (University of Southern California, priority 2018, dated 2026).

Test [1] has as its target T1, OSMR and gp130 (Homo sapiens, UniProt P40189).
T1 construct: FLAG; expressed in transfected cells; host or cells: adult human chondrocytes
T1 sequence (P40189 23-918): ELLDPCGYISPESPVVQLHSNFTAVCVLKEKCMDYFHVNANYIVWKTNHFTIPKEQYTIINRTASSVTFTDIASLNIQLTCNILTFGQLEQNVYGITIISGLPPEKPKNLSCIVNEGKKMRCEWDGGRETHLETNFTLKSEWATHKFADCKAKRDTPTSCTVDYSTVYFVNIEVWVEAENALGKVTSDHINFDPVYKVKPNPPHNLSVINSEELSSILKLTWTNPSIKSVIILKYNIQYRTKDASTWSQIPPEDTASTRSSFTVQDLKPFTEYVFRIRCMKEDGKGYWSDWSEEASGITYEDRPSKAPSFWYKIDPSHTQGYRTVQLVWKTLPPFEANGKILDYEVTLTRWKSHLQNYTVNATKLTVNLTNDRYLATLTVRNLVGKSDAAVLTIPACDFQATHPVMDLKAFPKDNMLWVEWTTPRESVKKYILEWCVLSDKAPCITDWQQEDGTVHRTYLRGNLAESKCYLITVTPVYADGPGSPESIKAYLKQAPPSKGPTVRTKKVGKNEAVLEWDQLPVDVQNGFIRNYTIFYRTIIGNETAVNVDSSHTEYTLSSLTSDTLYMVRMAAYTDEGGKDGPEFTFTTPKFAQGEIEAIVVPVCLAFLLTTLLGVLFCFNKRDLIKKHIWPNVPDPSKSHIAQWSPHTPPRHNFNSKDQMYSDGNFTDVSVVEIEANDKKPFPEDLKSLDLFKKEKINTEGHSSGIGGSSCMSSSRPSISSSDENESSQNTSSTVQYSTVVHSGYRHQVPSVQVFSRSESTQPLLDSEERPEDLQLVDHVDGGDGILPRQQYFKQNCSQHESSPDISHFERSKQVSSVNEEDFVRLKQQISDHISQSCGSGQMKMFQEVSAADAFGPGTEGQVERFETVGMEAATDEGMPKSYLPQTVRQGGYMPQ
Briefly: Receptor competition, gp130-Flag pull-down, OSMR. In kind it is cell-based. Particulars: in the presence of OSM; IP-FLAG, WB-OSMR. Here is the method:
Adult human chondrocytes transfected with gp130-Flag were incubated with various concentrations of RCGD 423 in the presence of IL-6 or OSM; levels of immoprecipitated IL-6R or OSMR were used to calculate the dissociation constant (Kd).
Adult human chondrocytes; IP-FLAG AB (transfected with gp130 FLAG plasmid), WB-OSMR.
This property would be of great interest due to the pro-inflammatory and pro-catabolic effects of these cytokines in the joint space. […] To assess whether RCGD 423 could directly compete for gp130 occupancy, human adult articular chondrocytes were transfected with tagged gp130 and then pulled down associated proteins±RCGD 423 and/or IL-6.

In test [2] the target is T2, gp130 homodimers (Homo sapiens, UniProt P40189).
T2 construct: Myc; expressed in transfected cells; host or cells: 293T
T2 sequence (P40189 23-918) 1: T1 sequence (P40189 23-918)
T2 sequence (P40189 23-918) 2: T1 sequence (P40189 23-918)
Briefly: Tagged gp130 homodimer detection in 293T cells. In kind it is cell-based. To be noted: tagged gp130 in 293T cells. Here is the method: Based on this, it was hypothesized that RCGD 423 acts through gp130 by promoting stable homodimers in the absence of ligand. To confirm that RCGD 423 acts through gp130, the gp130 null cell line Ba/F3 cells was used. Ba/F3 cells were transfected with either full-length gp130 or a mutant gp130 lacking domain 2 (ΔD2), which contains the predicted binding site for RCGD 423 (FIG. 7). […] To verify the specificity of RCGD 423 in vivo, the compound was injected into rat knees in the presence of the small molecule gp130 inhibitor SC144 or a blocking antibody specific for domain 2 of gp130. […] The ability of RCGD 423 to act via inducing formation of gp130 homodimers was then examined by expressing tagged versions of gp130 in 293T cells. In this system, only homodimeric complexes can contain both tagged versions of gp130 (FIG. 9).

In test [3] the test system is adult human PBMCs. Briefly: ERK and NF-κB downstream of OSM and IL-6 in PBMCs. In kind it is cell-based. How it is done: Accordingly, the ability of RCGD 423 to suppress signaling downstream of IL-6 and OSM in synoviocytes and peripheral blood mononuclear cells was assessed (FIG. 14).
The test system of test [4] is NF-κB protein. Briefly: OSM or IL-6 induced NF-κB in human adult articular chondrocytes. In kind it is cell-based. To be noted: in combination with OSM or IL-6.
In test [5] the test system is Col10a1-RFP reporter in limb bud mesenchymal cells. In words: High throughput screen, Col10a1 reporter in BMP-4 stimulated limb mesenchymal cells. In kind it is cell-based, mouse. To be noted: ~170,000 compounds screened. How it is done:
The gp130 co-receptor LIFR is expressed on a subset of superficial chondrocytes throughout human ontogeny. […] Given the known (and mostly detrimental roles) of IL-6 family cytokines on articular chondrocytes, a high throughput screen was performed to identify small molecules that could potentially modulate gp130 signaling. In adult mice, IL-6/gp130 signaling drives Col10a1 expression and hypertrophy, which has been strongly associated with OA progression; ˜170,000 compounds were thus screened for their ability to prevent increases in Col10-mCherry fluorescence in mouse limb mesenchymal cells stimulated with BMP-4, a strong driver of hypertrophy (FIG. 2).

Test [6] relates to adult pig articular chondrocytes. In words: Western blot of signaling proteins (pSTAT3, MYC, MAPK, AKT, NF-κB) in pig articular chondrocytes. In kind it is cell-based. Here is the method: (A) Class 1 molecules (marked by red arrows) activate STAT3 and MYC signaling pathways wile Class 2 molecules (blue arrows) have no stimulatory effects on STAT3 and MYC signaling in chondrocytes as determined by western blot analysis. (B) Structures of the most prominent Class 1 and Class 2 molecules. […] All drugs were tested at 10 μM and assessed using Western Blot.
All drugs tested at 10 μM and assessed using Western Blot.
To begin to address the mechanism of action of RCGD 423, adult pig chondrocytes were incubated with the drug, IL-6 family cytokines or the pro-catabolic cytokines TNF-α and IL-1β and measured levels of various proteins downstream of these cytokines that are known to drive catabolic responses (FIG. 3).
Firstly, RCGD 423 was a hit from a library; this made the depth of the discovery surrounding the technology less comprehensive. Additionally, the physical properties of RCGD 423 (solubility, potency, functional groups) could be improved. Significant gains in these areas could potentially result in a first-in-class injectable for the treatment of post-traumatic OA. Moreover, the potential risks associated with promoting MYC stabilization and proliferation in gp130^+ cells as well as large increases in active STAT3 protein was of concern. […] These compounds were then screened in adult pig articular chondrocytes and cartilage explants, seeking compounds that could inhibit the catabolic effects of OSM but not drive increases in MYC and pSTAT3 protein levels. […] Together, these preliminary data identify CX-011 (B8) as a highly anti-inflammatory, anti-catabolic alternative to RCGD 423, with increased “drug-like” properties and reduced potential molecular liabilities.

In test [7] the test system is human fetal articular chondrocytes. In words: Alkaline phosphatase / hypertrophy in fetal articular chondrocytes. In kind it is cell-based.

Consider `Brc1ccc(Nc2nc(-c3ccccc3)cs2)cc1` [RCGD 423], for which the “competition with OSMR for gp130 occupancy / OSMR-gp130 interaction” value in test [1] was “directly competes with OSMR and IL-6R for gp130 occupancy”. Further, the “detection of gp130 homodimers (gp130-Myc)” value in test [2] was “only in the presence of RCGD 423 could gp130 homodimers be detected; also recorded: gp130-Myc was only detectable in the presence of RCGD 423”. In test [3], the “increases in ERK and NF-κB levels downstream of OSM and IL-6” value was “inhibits increases in ERK and NF-κB levels”. Moreover, in test [4], the “increases in NF-κB protein / signaling downstream of OSM and IL-6” value was “significantly reduced increases in NF-κB protein; also recorded: reduces signaling downstream of OSM and IL-6”. In test [5], the “ability to prevent increases in Col10-mCherry fluorescence (Col10a1 reporter)” value was “primary hit”. In addition, in test [6] (Western blot, analogs at 10 μM), the “levels of active STAT3 (pSTAT3) and MYC proteins” value is “increased levels of active STAT3 and MYC proteins; also recorded: shared increase in active STAT3 (pSTAT3) and MYC proteins”. The “activation of the MAPK, AKT and NF-κB pathways” value in test [6] (adult pig articular chondrocytes) was “did not evidence the same result; also recorded: does not”. In addition, the “increases in alkaline phosphatase, a marker of hypertrophy” value in test [7] is listed as “could prevent increases in alkaline phosphatase; also recorded: ability of the compound to inhibit hypertrophy was confirmed”.
